5 compounds from ChEMBL document CHEMBL1201862, “PubChem BioAssay data set” (2004) can be followed below.

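Grown in 96-well plates, cells were treated for 48 hours with each compound at five concentrations. Insufficient inhibition: endpoint recorded as highest concentration tested. At the GI50, growth is halved.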 Active and inactive are the calls of the source. Cut-off read from the data, not from the text of the source: active = GI50 up to about 1.1 µM and inactive = higher.

Some test systems named below: M14; U-251; LXFL 529; UO-31; LOX IMVI; HL-60; MOLT-4; 786-0; SF-539; CCRF-CEM; UACC-257; SK-MEL-2; SF-268; KM12; HOP-92; NCI-H23; CAKI-1; DU-145; OVCAR-3; KM-20L2.
Holding throughout (assay): NCI-60 cell line screen, 48 h

Take `Oc1cc(-c2ccc[nH]2)nc2cc3c(cc12)OCO3`: the GI50 in the test on M14 was 32.2 µM (inactive); with U-251, 65.9 µM (inactive); with LXFL 529 it was 28.4 µM (inactive); with UO-31, 56.5 µM (inactive); in the test on LOX IMVI, 64.1 µM (inactive); in the test on HL-60 it was 26.9 µM (inactive). Moreover, the GI50 was 39.7 µM (inactive) in the test on MOLT-4; 40.6 µM (inactive) in the test with 786-0; 29.6 µM (inactive) in the test on SF-539; 24.1 µM (inactive) with CCRF-CEM; 64.7 µM (inactive) with UACC-257; 48.3 µM (inactive) with SK-MEL-2.
For `CSC(=N\c1ccccc1)/N=C(\SCc1ccccc1)N(C)C`, the GI50 in the test with M14 was 0.789 µM (active); in the test on U-251 it was 1.12 µM (inactive); in the test with LXFL 529 it was 0.454 µM (active); with UO-31, 1.46 µM (inactive); with SF-268, 0.971 µM (active); with KM12, 0.48 µM (active). Also, the GI50 with HOP-92 is 1.4 µM (inactive); in the test with LOX IMVI, 0.189 µM (active); with NCI-H23, 1.24 µM (inactive); in the test on CAKI-1, 0.927 µM (active); in the test on HL-60, 0.172 µM (active); in the test with MOLT-4, 0.382 µM (active). For the same compound, the GI50 was 0.531 µM (active) in the test on 786-0; 1.28 µM (inactive) with SF-539; 0.9 µM (active) in the test on DU-145; 0.869 µM (active) with OVCAR-3; 0.27 µM (active) with CCRF-CEM; 1.57 µM (inactive) with UACC-257. The GI50 with SK-MEL-2 is 1.87 µM (inactive).
Consider `CCOC(=O)C1=C(C)N(NC(N)=O)C2(N)N(NC(N)=O)C(C)=C(C(=O)OCC)C12C(=O)OCC` (stereo unspecified), for which the GI50 in the test with M14, in the test on KM-20L2, in the test on U-251, in the test on LXFL 529, in the test with UO-31 and with SF-268 was > 100 µM (inactive) in each case. In addition, the GI50 in the test on KM12, in the test on LOX IMVI, with CAKI-1, with MOLT-4, in the test with 786-0 and with SF-539 was > 100 µM (inactive) in each case. Further, the GI50 in the test with OVCAR-3, in the test with UACC-257 and in the test on SK-MEL-2 was > 100 µM (inactive) throughout.
On to `C=C1CC2CC(O)CC(C1)C2` (stereo unspecified), for which the GI50 in the test on M14, with KM-20L2, in the test on U-251, with LXFL 529, with UO-31 and in the test on SF-268 was > 100 µM (inactive) each time. The GI50 was > 100 µM (inactive) with KM12; > 100 µM (inactive) in the test on HOP-92; > 100 µM (inactive) in the test on LOX IMVI; > 100 µM (inactive) with NCI-H23; > 100 µM (inactive) in the test on CAKI-1; 78.2 µM (inactive) with MOLT-4. Moreover, the GI50 in the test with 786-0, with SF-539, with OVCAR-3, with UACC-257 and in the test on SK-MEL-2 was > 100 µM (inactive) each time.
Regarding `CC(=O)O[C@H]1C(=O)[C@@]2(C)[C@H]([C@H](OC(=O)c3ccccc3)[C@]3(O)C[C@H](OC(=O)[C@H](O)[C@@H](NC(=O)c4ccccc4)c4ccccc4)C(C)=C1C3(C)C)[C@]1(OC(C)=O)CO[C@@H]1C[C@@H]2O` [PACLITAXEL], the GI50 in the test on M14 was 0.0229 µM (active); in the test on U-251, 0.00384 µM (active); with LXFL 529, 0.528 µM (active); in the test with UO-31, 1.09 µM (active); with SF-268, 0.00658 µM (active); in the test on LOX IMVI it was 0.00355 µM (active). Besides, the GI50 in the test with NCI-H23 is 0.00396 µM (active); in the test with CAKI-1 it was 0.203 µM (active); in the test on HL-60 it was 0.00427 µM (active); in the test on 786-0, 0.0337 µM (active); in the test on SF-539, 0.00373 µM (active); in the test with DU-145 it was 0.0239 µM (active). The GI50 in the test with CCRF-CEM was 0.00267 µM (active).
